Tested on: tau phosphorylation
Test: Tau phosphorylation after concussive injury in the rat (immunohistology)
Format: in vivo
Conditions: rat concussion model; 3 mg/kg intravenously at 30 min after induction of injury; assessed 3 days after the concussive event
Source text: Note that concussive injury in the rat causes extensive tau phosphorylation (B) by 3 days after the concussive event compared to non-injured animals (A). […] Having established that hyperphosphorylated tau accumulates perivascularly following concussive injury, we used an animal model of concussion to investigate whether concussion causes perivascular release of substance P. We developed a rodent model of concussion to replicate the concussive event (Donkin et al., 2004, 7th International Neurotrauma Symposium, pp 75-78, Medimond Publishers, Bologna, Italy) and subsequently determined whether substance P was released after such an event. There was a clear increase in brain perivascular substance P immunoreactivity after the concussive event (FIG. 2). […] Having shown that mechanical injury causes release of substance P after concussive injury, we then investigated whether Emend® reduces tau hyperphosphorlation after concussive injury. […] Note that concussive injury in the rat causes extensive tau phosphorylation (B) by 3 days after the concussive event compared to non-injured animals (A). […] Thus, administration of Emend® prevents tau hyperphosphorylation and thus prevents the development of CTE.

SMILES: C[C@@H](O[C@H]1OCCN(Cc2nc(=O)[nH][nH]2)[C@H]1c1ccc(F)cc1)c1cc(C(F)(F)F)cc(C(F)(F)F)c1 [Emend®, 5-([(2R,3S)-2-((R)-1-[3,5-bis(trifluoromethyl)phenyl]ethoxy)-3-(4-fluorophenyl)morpholino]methyl)-1H-1,2,4-triazol-3(2H)-one]
- effect on tau phosphorylation after concussive injury: almost complete inhibition of tau phosphorylation
